Experiment: Binding affinity against PCP site of the NMDA Receptor using [3H]TCP radioligand

Structure (SMILES)	Ki [nM]
Nc1cccc2c1C1CNC2C2CCCC12 (stereo not given)	14
CN1CC2c3c(N)cccc3C1C1CCCC21 (stereo not given)	226
Oc1cccc(C2(N3CCCCC3)CCCCC2)c1	38
c1ccc2c(c1)C1CNC2C2CCCC12 (stereo not given)	52
C[C@H]1NC2c3cccc(N)c3C1C1CCCC21 (stereo not given in full)	8
CN1CC2c3c(N)cccc3C1C1C=CCC21 (stereo not given)	701
CN1CC2c3ccccc3C1C1CCCC21 (stereo not given)	1140
C[C@@H]1NC2c3cccc(N)c3C1C1CCCC21 (stereo in doubt; 12a)	89
C[C@@H]1NC2c3cccc(N)c3C1C1CCCC21 (stereo in doubt; 13)	1200
C[C@]12N[C@H](Cc3ccccc31)c1ccccc12 [DIZOCILPINE]	2.2
